Test results: patent US8987256B2, “Oxo-heterocyclic substituted carboxylic acid derivatives and the use thereof” (Bayer Intellectual Property GmbH, priority 2008, dated 2015)
pEC50, pIC50: −log10 of the molar value.

Experiments:
[1] = biological target: T1, recombinant guanylate cyclase reporter cell line (Rattus norvegicus, UniProt P20595); test: sGC-activating activity in the CHO reporter cell in vitro; assay type: cell-based
T1 construct: expressed in transfected cells; host or cells: CHO reporter cell line
T1 sequence (P20595 1-619): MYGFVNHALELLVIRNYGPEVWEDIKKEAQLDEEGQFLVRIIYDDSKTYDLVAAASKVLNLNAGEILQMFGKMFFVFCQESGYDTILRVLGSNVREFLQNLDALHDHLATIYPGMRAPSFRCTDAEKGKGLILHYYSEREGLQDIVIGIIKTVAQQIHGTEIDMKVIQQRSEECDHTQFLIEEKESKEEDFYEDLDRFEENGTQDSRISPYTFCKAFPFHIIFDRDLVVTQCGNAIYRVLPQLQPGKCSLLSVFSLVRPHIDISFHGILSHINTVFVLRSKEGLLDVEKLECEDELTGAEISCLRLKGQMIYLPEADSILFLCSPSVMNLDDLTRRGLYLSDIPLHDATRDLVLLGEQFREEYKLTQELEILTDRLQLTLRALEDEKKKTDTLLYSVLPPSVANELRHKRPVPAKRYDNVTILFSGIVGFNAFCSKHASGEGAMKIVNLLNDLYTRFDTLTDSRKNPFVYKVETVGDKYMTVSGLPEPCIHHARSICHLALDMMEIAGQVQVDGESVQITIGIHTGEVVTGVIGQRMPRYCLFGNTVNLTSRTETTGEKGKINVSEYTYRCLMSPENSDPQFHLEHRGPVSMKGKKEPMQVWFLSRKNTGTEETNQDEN
T1 sequence (P19686 1-690 partner): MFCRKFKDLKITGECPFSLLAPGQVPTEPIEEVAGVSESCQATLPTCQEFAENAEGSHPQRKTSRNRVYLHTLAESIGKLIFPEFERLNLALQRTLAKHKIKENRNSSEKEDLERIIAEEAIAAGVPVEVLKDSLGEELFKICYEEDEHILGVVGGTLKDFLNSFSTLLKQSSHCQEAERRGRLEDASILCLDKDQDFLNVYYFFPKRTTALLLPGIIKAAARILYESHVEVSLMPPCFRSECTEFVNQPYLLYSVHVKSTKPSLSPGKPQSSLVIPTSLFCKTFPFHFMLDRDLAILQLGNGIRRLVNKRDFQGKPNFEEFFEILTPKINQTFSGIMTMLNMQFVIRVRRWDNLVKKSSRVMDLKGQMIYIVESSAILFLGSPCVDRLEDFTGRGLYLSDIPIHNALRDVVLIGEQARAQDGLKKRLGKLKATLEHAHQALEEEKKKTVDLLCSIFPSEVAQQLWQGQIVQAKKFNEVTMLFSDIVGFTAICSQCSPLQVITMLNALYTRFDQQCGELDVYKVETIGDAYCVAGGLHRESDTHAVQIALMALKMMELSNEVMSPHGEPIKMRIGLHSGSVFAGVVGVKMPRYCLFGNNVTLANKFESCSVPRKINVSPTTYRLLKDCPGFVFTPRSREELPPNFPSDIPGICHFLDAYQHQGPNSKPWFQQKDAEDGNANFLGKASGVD
Protocol: The cellular action of the compounds according to the invention is determined at a recombinant guanylate cyclase reporter cell line, as described in F. Wunder et al., Anal. Biochem. 339, 104-112 (2005).

saphenous artery rings = test: Vasorelaxant effect in vitro (phenylephrine-contracted artery rings); design: species or system Rabbits; settings: concentration reducing phenylephrine-induced contraction by 50%
Protocol: Rabbits are anesthetized and sacrificed by intravenous injection of thiopental sodium (about 50 mg/kg) and exsanguinated. The saphenous artery is removed and divided into rings 3 mm wide. The rings are mounted singly on in each case a pair of triangular hooks open at the end and made of 0.3 mm-thick special wire (Remanium®). Each ring is placed under an initial tension in 5 ml organ baths with Krebs-Henseleit solution which is at 37° C., is gassed with carbogen and has the following composition: NaCl 119 mM; KCl 4.8 mM; CaCl2×2H2O 1 mM; MgSO4×7H2O 1.4 mM; KH2PO4 1.2 mM; NaHCO3 25 mM; glucose 10 mM; bovine serum albumin 0.001%. The force of contraction is detected with Statham UC2 cells, amplified and digitized via A/D converters (DAS-1802 HC, Keithley Instruments, Munich) and recorded in parallel on chart recorders. Contractions are induced by addition of phenylephrine.
After several (generally 4) control cycles, the substance to be investigated is added in each further run in increasing dosage, and the level of the contraction achieved under the influence of the test substance is compared with the level of the contraction reached in the last preceding run. The concentration necessary to reduce the contraction reached in the preceding control by 50% is calculated from this (IC50). The standard application volume is 5 μl. The proportion of DMSO in the bath solution corresponds to 0.1%.

[2] = biological target: T2, soluble guanylate cyclase (sGC) (Rattus norvegicus, UniProt P20595); test: Activating action at the sGC enzyme in vitro (PPi detection, luciferase); assay type: biochemical; settings: for pEC50: read-out: EC50 (concentration at 50% of maximum efficacy), activating action at the sGC enzyme
T2 construct: made in house; host or cells: baculovirus/Sf9 insect cells
T2 sequence (P20595 1-619): T1 sequence (P20595 1-619)
T2 sequence (P19686 1-690 partner): T1 sequence (P19686 1-690 partner)
Protocol: Soluble guanylate cyclase (sGC) converts on stimulation GTP into cGMP and pyrophosphate (PPi). PPi is detected with the aid of the assay described below. The signal produced in the assay increases as the reaction progresses and serves as a measure of the sGC enzyme activity under the given stimulation.
To carry out the assay, 29 μl of enzyme solution [0-10 nM soluble guanylate cyclase (prepared according to Honicka et al., J. Mol. Med. 77, 14-23 (1999)) in 50 mM TEA, 2 mM MgCl2, 0.1% BSA (fraction V), 0.005% Brij®, pH 7.5] are initially introduced into a microplate, and 1 μl of the substance to be tested (as a serially diluted solution in DMSO) is added. The mixture is incubated at room temperature for 10 min. Then 20 μl of detection mix [1.2 nM Firefly Luciferase (Photinus pyralis luciferase, Promega), 29 μM dehydroluciferin (prepared according to Bitler & McElroy, Arch. Biochem. Biophys. 72, 358 (1957)), 122 μM luciferin (Promega), 153 μM ATP (Sigma) and 0.4 mM DTT (Sigma) in 50 mM TEA, 2 mM MgCl2, 0.1% BSA (fraction V), 0.005% Brij®, pH 7.5] are added. The enzyme reaction is started by adding 20 μl of substrate solution [1.25 mM guanosine 5′-triphosphate (Sigma) in 50 mM TEA, 2 mM MgCl2, 0.1% BSA (fraction V), 0.005% Brij®, pH 7.5] and measured continuously in a luminometer. The extent of the stimulation by the substance to be tested can be determined relative to the signal of the unstimulated reaction.
The activation of heme-free guanylate cyclase is examined by addition of 25 μM of 1H-1,2,4-oxadiazolo[4,3-a]quinoxalin-1-one (ODQ) to the enzyme solution and subsequent incubation for 30 minutes and compared to the stimulation of the native enzyme.

Row | MEC (minimum effective concentration), sGC-activating activity in the CHO reporter cell [1] | pIC50 (saphenous artery rings; Oryctolagus cuniculus) | MEC (minimum effective concentration), activating action at the sGC enzyme [2] | pEC50 [2] | pIC50 (saphenous artery rings) | Structure (SMILES)
1 | 10 nM | 7.28 | 5.1 nM | 6.48 | – | CC(C)(Cc1cccc(NC(=O)C(c2ccc(Cn3nc(-c4ccccc4)ccc3=O)cc2)C2CCCC2)c1)C(=O)O (single isomer, unassigned) [Example 138, 3-{3-[(cyclopentyl{4-[(6-oxo-3-phenylpyridazin-1(6H)-yl)methyl]phenyl}acetyl)amino]phenyl}-2,2-dimethylpropanoic acid]
2 | 0.3 nM | – | 0.5 nM | 8.21 | 7.59 | CC(C(C(=O)Nc1cccc(CC2(C(=O)O)CC2)c1)c1ccc(CN2N=C(c3ccccc3)OCC2=O)cc1)C(F)(F)F (single isomer, unassigned) [Example 164, 1-{3-[(4,4,4-trifluoro-3-methyl-2-{4-[(5-oxo-2-phenyl-5,6-dihydro-4H-1,3,4-oxadiazin-4-yl)methyl]phenyl}-butanoyl)amino]benzyl}cyclopropanecarboxylic acid]
3 | 0.3 nM | – | 0.4 nM | 8.62 | 8.31 | CC(C(C(=O)Nc1cccc(CC2(C(=O)O)CC2)c1)c1ccc(CN2N=C(c3ccccc3)OCC2=O)cc1)C(F)(F)F (single isomer, unassigned) [Example 166, 1-{3-[(4,4,4-trifluoro-3-methyl-2-{4-[(5-oxo-2-phenyl-5,6-dihydro-4H-1,3,4-oxadiazin-4-yl)methyl]phenyl}-butanoyl)amino]benzyl}cyclopropanecarboxylic acid]
4 | 3 nM | 6.45 | 2.5 nM | 7.52 | – | CC(C(C(=O)Nc1cccc(CCC(=O)O)c1)c1ccc(CN2N=C(c3ccccc3)OCC2=O)cc1)C(F)(F)F (single isomer, unassigned) [Example 192, 3-{3-[(4,4,4-Trifluoro-3-methyl-2-{4-[(5-oxo-2-phenyl-5,6-dihydro-4H-1,3,4-oxadiazin-4-yl)methyl]phenyl}butanoyl)amino]phenyl}propanoic acid]
5 | 1 nM | 6.80 | 0.9 nM | 7.68 | – | O=C(Nc1cc(F)cc(CC2(C(=O)O)CC2)c1)C(c1ccc(CN2N=C(c3ccccc3)OCC2=O)cc1)C1CCCC1 (single isomer, unassigned) [Example 237, 1-{3-[(Cyclopentyl{4-[(5-oxo-2-phenyl-5,6-dihydro-4H-1,3,4-oxadiazin-4-yl)methyl]phenyl}acetyl)amino]-5-fluorobenzyl}cyclopropanecarboxylic acid]
6 | 3 nM | 7.35 | 0.2 nM | 8.27 | – | O=C(Nc1cccc(CC2(C(=O)O)CC2)c1)C(c1ccc(Cn2nc(-c3ccccc3)ccc2=O)cc1)C1CCCC1 (stereo not shown) [Example 156, 1-{3-[(cyclopentyl{4-[(6-oxo-3-phenylpyridazin-1(6H)-yl)methyl]phenyl}acetyl)amino]benzyl}-cyclopropanecarboxylic acid]
7 | 0.2 nM | 7.43 | 0.1 nM | 8.82 | – | CC(C(C(=O)Nc1cc(CC2(C(=O)O)CC2)ccc1F)c1ccc(CN2N=C(c3ccccc3)OCC2=O)cc1)C(F)(F)F (stereo not shown) [Example 186, 1-{4-fluoro-3-[(4,4,4-trifluoro-3-methyl-2-{4-[(5-oxo-2-phenyl-5,6-dihydro-4H-1,3,4-oxadiazin-4-yl)methyl]phenyl}butanoyl)amino]benzyl}-cyclopropanecarboxylic acid]
8 | 1 nM | 7.07 | 0.5 nM | 7.74 | – | O=C(Nc1cccc(CC2(C(=O)O)CC2)c1)[C@H](c1ccc(CN2N=C(c3ccccc3)OCC2=O)cc1)C1CCCC1 [Example 204, (+)-1-(3-{[(2S)-2-Cyclopentyl-2-{4-[(5-oxo-2-phenyl-5,6-dihydro-4H-1,3,4-oxadiazin-4-yl)-methyl]phenyl}acetyl]amino}benzyl)cyclopropane carboxylic acid]
9 | 0.1 nM | 7.96 | 0.4 nM | 7.72 | – | O=C(Nc1cccc(CC2(C(=O)O)CC2)c1)[C@H](c1ccc(CN2Cc3c(F)cccc3C2=O)cc1)C1CCCC1 [Example 214]
10 | 1 nM | 6.31 | 1 nM | 7.70 | – | O=C(O)CCc1ccc(F)c(NC(=O)[C@H](c2ccc(CN3N=C(c4ccccc4)OCC3=O)cc2)C2CCCC2)c1 [Example 224]
